In patent publication US5124325A, “Therapeutic agents of metabolic bone disease” (Kyorin Pharmaceutical Co., Ltd., priority 1989, dated 1992):

Tested on: bone resorption
Assay: Inhibition of bone resorption (45Ca release from prelabeled rat embryonic limb bones stimulated with IL-1β)
Type: cell-based, rat (SD)
Conditions: 25 μg/ml, 45Ca prelabeled rat embryonic limb bone, 72 hours culture
Description: ^45 Ca prelabeled rat embryonic limbs for the measurement of bone resorption were prepared by the method of Raisz (J. Clin. Invest. 44, 103 (1965)). Briefly, 17th day pregnant SD rats were injected subcutaneously with 200 μCi of calcium-45 as calcium chloride. Two days later, the rats were killed, the embryos removed and washed with sterilized phosphated buffer solution (PBS). The forelimbs were dissected free of muscle and the cartilagious ends were cut off. The bone shaft was cultured with BGJb medium containing 20% bovine serum albumin (BSA).
The effect of each example compound of this invention on bone resorption was assessed by the method of Tsuda et al (J. Bone & Mineral Res. 1, 207 (1986)) with slight modification. Briefly, the trimmed bone was precultured for 24 hours at 37 ° C. and in an atmosphere of 5% CO2 in air on a millipore filter immersed in 0.6 ml of BGJb medium containing 20% BSA. 24-well plate was used for culture. The bone on the filter was then transferred to a new well filled with the medium containing the compounds of this invention with or without […] and cultured for 72 hours. 0.3 ml of the supernatant was collected and used to determine the ^45 Ca release from the bone. The bone was immersed in 0.3 ml of 1 N HCl for not less than 90 minutes, and 10 ml of ACS II scintillator was added so as to measure the radioactivity in a liquid scintillation counter. The activity of bone resorption was expressed as percent of ^45 Ca release to supernatant from labeled bone (sum of the radioactivity of the bone and the medium). One bone was cultured on one well and each experimental group consisted of 5 or 6 bones derived from fetus in one pregnant rat. The activity of bone resorption was determined by the formula.
U: ^45 Ca release without adding IL-1β
C: ^45 Ca release by adding IL-1β
T: ^45 Ca release by adding IL-1β and example compound

Row | SMILES | inhibition at 25 µg/mL [%]
1 | O=C(O)c1cc(Cl)cc2c1NC(c1ccccc1)CC2 (stereo not shown) [Compound 1, 6-Chloro-2-phenyl-1,2,3,4-tetrahydroquinoline-8-carboxylic acid] | 74
2 | O=C(O)c1cccc2c1NC(c1ccccc1)CC2 (stereo not shown) [Compound 2] | 113
3 | O=C(O)c1cc([N+](=O)[O-])cc2c1NCCC2 [Compound 3] | 100
4 | O=C(O)c1cc(Cl)cc2c1NCCC2 [Compound 4] | 76
5 | O=C(O)c1cccc2c1NCC(c1ccccc1)C2 (stereo not shown) [Compound 5] | 103
6 | O=C(O)c1cccc2c1NC(c1ccc(O)cc1)CC2 (stereo not shown) [Compound 6] | 70
7 | Cc1ccc(S(=O)(=O)Nc2cc3c(c(C(=O)O)c2)NC(c2ccccc2)CC3)cc1 (stereo not shown) [Compound 7, 2-Phenyl-6-p-toluenesulfonylamino-1,2,3,4-tetrahydroquinoline-8-carboxylic acid] | 80
8 | CC(C)Oc1ccc(C2CCc3cccc(C(=O)O)c3N2)cc1 (stereo not shown) [Compound 8, 2-(4-Isopropoxyphenyl)-1,2,3,4-tetrahydroquinoline-8-carboxylic acid] | 92
9 | CC(C)Oc1ccc2c(=O)c(-c3ccccc3)coc2c1 [Ipriflavone, 7-isopropoxyisoflavone, reference compound] | 58

Tested on: bone resorption
Assay: not given
Conditions: It has been reported; cited from earlier work

Row | SMILES | inhibitory effect on bone resorption (in words)
10 | CC(C)Oc1ccc2c(=O)c(-c3ccccc3)coc2c1 [Ipriflavone, 7-isopropoxyisoflavone, reference compound] | have inhibitory effect on bone resorption
